According to patent publication US8173428B2, “LNA oligonucleotides and the treatment of cancer” (Santaris Pharma A/S, priority 2004, dated 2012):
Oligonucleotides are written 5' to 3', each unit as a sugar letter and its base; * is a phosphorothioate linkage, no mark a phosphodiester; rarer units and linkages stand in square brackets, end groups in braces. Plain capitals give the bases only. l = locked nucleic acid (LNA); [5mC] = 5-methylcytosine; d = 2'-deoxy (DNA)

How the values were obtained:
cynomolgus monkeys = experiment: i.v. MTD study in cynomolgus monkeys; type: in vivo; conditions: dose escalation up to 160 mg/kg×3 (total 930 mg/kg) or 120 mg/kg×5 over 2 weeks
Procedure: The animals were treated with either a dose escalating design with a maximum dose of 160 mg/kg×3 (total dose of 930 mg/kg) or a 120 mg/kg×5 over 2 weeks.

15PC3 cells [1] = experiment: Cell cycle analysis by propidium iodide staining and FACS; type: cell-based, human; conditions: transfected 15PC3 cells exposed to different concentrations of Taxol
Procedure: (§1) Cell culturing: Human prostate cancer 15PC3 cells (kindly provided by Dr. F Baas, Neurozintuigen Laboratory, AMC, The Netherlands) were seeded to a density of 8×10E5 cells in T75-flasks and grown for two days at 37° C. and 5% CO2 in DMEM supplemented with 10% FBS, Glutamax and Gentamicin. Two days following seeding cells were transfected with 2-10 nM SEQ ID NO. 2 using Lipofectamine at a final conc. of 7.5 μg/ml. Transfections were carried out as described by Dean et al. (1994, JBC 269 p. 16416 16424). In short cells were incubated with Lipofectamine diluted in OptiMEM for 7-10 min followed by the addition of the oligonucleotide to total volume of 8.7 ml per T75 flask. 4 hours following transfection cells were washed in OptiMEM and grown at 37° C. for 12-96 hours in complete growth medium with or without the addition of 2-100 nM Taxol (Sigma Aldrich). Cells were harvested for either mRNA extraction, Caspase 3/7 assay or fixed, stained with PI and analysed by FACS analysis.
Cell culturing and transfections: As in example 13.
Fixation and PI staining: Cells were washed in PBS, harvested and resuspended in 100 μl in ice cold PBS. 900 μl ice cold 70% […] and fixed cells were kept at −20 until use. […]
SEQ ID NO. 2 transfected 15PC3 cells were exposed to different concentrations of Taxol and analysed by Propidium Iodide staining and subsequent FACS analysis (FIG. 7a-c). […]

[2] = Stability in mouse plasma; type: in vitro ADME; conditions: 20 μM, 37° C., up to 96 hours
Procedure: Stability of 20 μM SEQ ID NO. 2 and SEQ ID NO. 24 in human and mouse plasma (Li-Heparine (Taconic, M&B)) at 37° C. at different time aliquots: 0, 1, 2, 4, 24, 48 and 96 hours. A commercially available ladder was also included (10 and 20 mer are visible on the PAGE). (see FIG. 1)

Survivin protein = experiment: Western blot analysis of Survivin protein levels in transfected 15PC3 cells; type: cell-based, human; conditions: 1, 10 and 25 nM, 12, 24 and 48 hours, compared with mock
Procedure: Cell culturing and transfections: 15PC3 cells were seeded in 12-well plates and grown for two days at 37° C. (5% CO2) in DMEM supplemented with 10% FBS, Glutamax I and Gentamicin. When the cells were 60-70% confluent, they were transfected in duplicates with different concentrations of oligonucleotides (0.2-25 nM) using Lipofectamine 2000 (10 μg/ml). Transfections were carried out essentially as described by Dean et al. (1994, JBC 269:16416-16424). In short, cells were incubated for 10 min. with Lipofectamine in OptiMEM followed by addition of oligonucleotide to a total volume of 0.5 ml transfection mix per well. After 4 hours, the transfection mix was removed, cells were washed and grown at 37° C. for approximately 20 hours (mRNA analysis) or 12-72 hours (protein analysis) in the appropriate growth medium. Cells were then harvested for protein and RNA analysis.
The in vitro effect of Survivin oligoes on Survivin protein levels in transfected cells was determined by Western Blotting.
Cells were harvested and lysed in 50 mM Tris-HCl pH 6.8, 10% glycerol, 2.5% SDS, 5 mM DTT and 6 M urea supplemented with protease inhibitor cocktail (Roche). Total protein concentrations were measured using a BCA protein assay kit (Pierce). 50 μg total protein was run on a 12% Bis-Tris gels in MOPS buffer and blotted onto a PVDF membranes according to manufacture's instructions (Invitrogen). […]

15PC3 cells [3] = experiment: Caspase 3/7 assay, oligonucleotide in combination with Taxol; type: cell-based, human; conditions: 10 nM oligonucleotide with Taxol (10 nM or 100 nM), 48 hours and 72 hours
Procedure: as §1, with “4 hours following transfection cells were washed in OptiMEM and grown at 37° C. for 12-96 hours in complete growth medium with or without the addition of 2-100 nM Taxol (Sigma Aldrich).” left out
Caspase 3/7 assay: An equal amount of 15PC3 cells ranging from 2500-10000 cells were harvested by centrifugation at the indicated periods and plated in white 96 well plates (Nunc 136101) in DMEM. 100 μl of the highly sensitive Caspase 3/7-Glo™ Reagent (Promega) was added directly to the cells in 96 well and plates were incubated for 1 hour before recording luminescence (luciferase activity) in Luminoskan Ascent instrument from Thermo Labsystems after further 1 min lag period. The luciferase activity is measured as Relative Light Units per seconds (RLU/s). […]

For “5′-^MeCsTs^MeCsAsastscscsastsgsgs^MeCsAsGsc-3′ (l[5mC]*lT*l[5mC]*lA*dA*dT*dC*dC*dA*dT*dG*dG*l[5mC]*lA*lG*dC) [SEQ ID NO. 2]”, the clinical signs (cynomolgus monkeys) was “no notable clinical signs”, the “liver and kidney toxicity” value (cynomolgus monkeys) was “evidence of liver and kidney toxicity was apparent in all animals” and the “Cells trapped in the G2 or G4 phase, combination with Taxol” value (15PC3 cells [1]) was “increasing amount of cells trapped in the G2 or even G4 phase”. For the same substance, the “Stability in mouse plasma (degradation products)” value [2] was “No degradation products”, the “Survivin protein expression by Western blotting” value (Survivin protein) was “Survivin protein down-regulation” and the “Induction of apoptosis (Caspase 3/7 activity) in combination with Taxol” value (15PC3 cells [3]) was “clear additive effect on the induction of apoptosis”.
